Laboratory results from article PMC4496781, “Functional Roles of Aromatic Residues and Helices of Papiliocin in its Antimicrobial and Anti-inflammatory Activities” (Scientific Reports, 2015).
Ends that are not written are not given here.

system: Escherichia coli; details: 16 h
Description: (§1) MICs of the peptides against six standard bacteria and four multidrug-resistant bacteria were determined by a broth microdilution assay as described previously. […] Cytotoxicities against mammalian cells were measured against human RBCs, mouse macrophage-derived RAW264.7 cells, and fibroblast NIH-3T3 cells. The anti-inflammatory activities of the peptides were examined by inhibiting nitrite production in LPS-stimulated RAW264.7 cells.

Row | Substance | MIC, Escherichia coli
1 | RAKIAKKIEKVGRNVRDGIIKA-NH2 [PapN-2A5A] | 2.00 µM
2 | RAKIAKKIEKVGRNVRDGIIKAGPAVAVVGQAATVVK-NH2 [Papiliocin-2A5A] | 0.500 µM
3 | RAKIFKKIEKVGRNVRDGIIKA-NH2 [PapN-2A] | 2.00 µM
4 | RAKIFKKIEKVGRNVRDGIIKAGPAVAVVGQAATVVK-NH2 [Papiliocin-2A] | 0.250 µM
5 | RFKIWKKIEKVGRNVRDGIIKA-NH2 [PapN-2F5W] | 1.00 µM
6 | RWKIAKKIEKVGRNVRDGIIKA-NH2 [PapN-5A] | 1.00 µM

system: Staphylococcus aureus; details: 16 h
Description: as §1

Row | Substance | MIC, Staphylococcus aureus
7 | RAKIAKKIEKVGRNVRDGIIKA-NH2 [PapN-2A5A] | 128 µM
8 | RAKIAKKIEKVGRNVRDGIIKAGPAVAVVGQAATVVK-NH2 [Papiliocin-2A5A] | >128 µM
9 | RAKIFKKIEKVGRNVRDGIIKA-NH2 [PapN-2A] | 32.0 µM
10 | RAKIFKKIEKVGRNVRDGIIKAGPAVAVVGQAATVVK-NH2 [Papiliocin-2A] | 128 µM
11 | RFKIWKKIEKVGRNVRDGIIKA-NH2 [PapN-2F5W] | 16.0 µM
12 | RWKIAKKIEKVGRNVRDGIIKA-NH2 [PapN-5A] | 16.0 µM

system: Salmonella typhimurium; details: murium, 16 h
Description: as §1

Row | Substance | MIC, Salmonella typhimurium
13 | RAKIAKKIEKVGRNVRDGIIKA-NH2 [PapN-2A5A] | 4.00 µM
14 | RAKIAKKIEKVGRNVRDGIIKAGPAVAVVGQAATVVK-NH2 [Papiliocin-2A5A] | 1.00 µM
15 | RAKIFKKIEKVGRNVRDGIIKA-NH2 [PapN-2A] | 4.00 µM
16 | RAKIFKKIEKVGRNVRDGIIKAGPAVAVVGQAATVVK-NH2 [Papiliocin-2A] | 0.500 µM
17 | RFKIWKKIEKVGRNVRDGIIKA-NH2 [PapN-2F5W] | 2.00 µM
18 | RWKIAKKIEKVGRNVRDGIIKA-NH2 [PapN-5A] | 2.00 µM

system: Eenterococcus faecalis; details: E, 16 h
Description: as §1

Row | Substance | MIC, Eenterococcus faecalis
19 | RAKIAKKIEKVGRNVRDGIIKA-NH2 [PapN-2A5A] | >128 µM
20 | RAKIAKKIEKVGRNVRDGIIKAGPAVAVVGQAATVVK-NH2 [Papiliocin-2A5A] | >128 µM
21 | RAKIFKKIEKVGRNVRDGIIKA-NH2 [PapN-2A] | 128 µM
22 | RAKIFKKIEKVGRNVRDGIIKAGPAVAVVGQAATVVK-NH2 [Papiliocin-2A] | 128 µM
23 | RFKIWKKIEKVGRNVRDGIIKA-NH2 [PapN-2F5W] | 64.0 µM
24 | RWKIAKKIEKVGRNVRDGIIKA-NH2 [PapN-5A] | 128 µM

system: Bacillus subtilis; details: 16 h
Description: as §1

Row | Substance | MIC, Bacillus subtilis
25 | RAKIAKKIEKVGRNVRDGIIKA-NH2 [PapN-2A5A] | >128 µM
26 | RAKIAKKIEKVGRNVRDGIIKAGPAVAVVGQAATVVK-NH2 [Papiliocin-2A5A] | 128 µM
27 | RAKIFKKIEKVGRNVRDGIIKA-NH2 [PapN-2A] | 32.0 µM
28 | RAKIFKKIEKVGRNVRDGIIKAGPAVAVVGQAATVVK-NH2 [Papiliocin-2A] | 64.0 µM
29 | RFKIWKKIEKVGRNVRDGIIKA-NH2 [PapN-2F5W] | 8.00 µM
30 | RWKIAKKIEKVGRNVRDGIIKA-NH2 [PapN-5A] | 16.0 µM

system: Pseudomonas aeruginosa; details: 16 h
Description: as §1

Row | Substance | MIC, Pseudomonas aeruginosa
31 | RAKIAKKIEKVGRNVRDGIIKA-NH2 [PapN-2A5A] | 8.00 µM
32 | RAKIAKKIEKVGRNVRDGIIKAGPAVAVVGQAATVVK-NH2 [Papiliocin-2A5A] | 0.500 µM
33 | RAKIFKKIEKVGRNVRDGIIKA-NH2 [PapN-2A] | 4.00 µM
34 | RAKIFKKIEKVGRNVRDGIIKAGPAVAVVGQAATVVK-NH2 [Papiliocin-2A] | 0.500 µM
35 | RFKIWKKIEKVGRNVRDGIIKA-NH2 [PapN-2F5W] | 2.00 µM
36 | RWKIAKKIEKVGRNVRDGIIKA-NH2 [PapN-5A] | 2.00 µM

system: MDRAB 12035(R); details: broth microdilution, 16 h; unit not given
Description: (§2) We examined the antimicrobial activities of the peptides against multidrug-resistant bacterial strains, including four gram-negative species (S. typhimurium 8009(R), E. coli 1229(R), P. aeruginosa 2095(R), and A. baumannii 12035(R); Table 3).
as §1

Row | Substance | MIC, MDRAB 12035(R)
37 | RAKIAKKIEKVGRNVRDGIIKA-NH2 [PapN-2A5A] | 32.0 µM
38 | RAKIAKKIEKVGRNVRDGIIKAGPAVAVVGQAATVVK-NH2 [Papiliocin-2A5A] | 0.500 µM
39 | RAKIFKKIEKVGRNVRDGIIKA-NH2 [PapN-2A] | 8.00 µM
40 | RAKIFKKIEKVGRNVRDGIIKAGPAVAVVGQAATVVK-NH2 [Papiliocin-2A] | 0.500 µM
41 | RFKIWKKIEKVGRNVRDGIIKA-NH2 [PapN-2F5W] | 4.00 µM
42 | RWKIAKKIEKVGRNVRDGIIKA-NH2 [PapN-5A] | 8.00 µM

system: MDRPA 2095(R); details: 16 h
Description: as §2, §1

Row | Substance | MIC, MDRPA 2095(R)
43 | RAKIAKKIEKVGRNVRDGIIKA-NH2 [PapN-2A5A] | 16.0 µM
44 | RAKIAKKIEKVGRNVRDGIIKAGPAVAVVGQAATVVK-NH2 [Papiliocin-2A5A] | 1.00 µM
45 | RAKIFKKIEKVGRNVRDGIIKA-NH2 [PapN-2A] | 4.00 µM
46 | RAKIFKKIEKVGRNVRDGIIKAGPAVAVVGQAATVVK-NH2 [Papiliocin-2A] | 1.00 µM
47 | RFKIWKKIEKVGRNVRDGIIKA-NH2 [PapN-2F5W] | 2.00 µM
48 | RWKIAKKIEKVGRNVRDGIIKA-NH2 [PapN-5A] | 8.00 µM

system: MDREC 1229(R); details: 16 h
Description: as §2, §1

Row | Substance | MIC, MDREC 1229(R)
49 | RAKIAKKIEKVGRNVRDGIIKA-NH2 [PapN-2A5A] | 4.00 µM
50 | RAKIAKKIEKVGRNVRDGIIKAGPAVAVVGQAATVVK-NH2 [Papiliocin-2A5A] | 2.00 µM
51 | RAKIFKKIEKVGRNVRDGIIKA-NH2 [PapN-2A] | 2.00 µM
52 | RAKIFKKIEKVGRNVRDGIIKAGPAVAVVGQAATVVK-NH2 [Papiliocin-2A] | 1.00 µM
53 | RFKIWKKIEKVGRNVRDGIIKA-NH2 [PapN-2F5W] | 2.00 µM
54 | RWKIAKKIEKVGRNVRDGIIKA-NH2 [PapN-5A] | 2.00 µM

system: MDRST 8009(R); details: broth microdilution, 16 h; unit not given
Description: as §2, §1

Row | Substance | MIC, MDRST 8009(R)
55 | RAKIAKKIEKVGRNVRDGIIKA-NH2 [PapN-2A5A] | 8.00 µM
56 | RAKIAKKIEKVGRNVRDGIIKAGPAVAVVGQAATVVK-NH2 [Papiliocin-2A5A] | 4.00 µM
57 | RAKIFKKIEKVGRNVRDGIIKA-NH2 [PapN-2A] | 2.00 µM
58 | RAKIFKKIEKVGRNVRDGIIKAGPAVAVVGQAATVVK-NH2 [Papiliocin-2A] | 1.00 µM
59 | RFKIWKKIEKVGRNVRDGIIKA-NH2 [PapN-2F5W] | 2.00 µM
60 | RWKIAKKIEKVGRNVRDGIIKA-NH2 [PapN-5A] | 4.00 µM

system: gram-negative bacteria (E. coli, S. typhimurium, P. aeruginosa); details: 16 h
Description: (§3) This property is assessed by the therapeutic index which can be defined as a ratio of the […] against human hRBCs to the MIC against bacterial cells.
as §1

Row | Substance | GM of the MIC values, gram-negative
61 | RAKIAKKIEKVGRNVRDGIIKA-NH2 [PapN-2A5A] | 4.67 µM
62 | RAKIAKKIEKVGRNVRDGIIKAGPAVAVVGQAATVVK-NH2 [Papiliocin-2A5A] | 0.667 µM
63 | RAKIFKKIEKVGRNVRDGIIKA-NH2 [PapN-2A] | 3.33 µM
64 | RAKIFKKIEKVGRNVRDGIIKAGPAVAVVGQAATVVK-NH2 [Papiliocin-2A] | 0.417 µM
65 | RFKIWKKIEKVGRNVRDGIIKA-NH2 [PapN-2F5W] | 1.67 µM
66 | RWKIAKKIEKVGRNVRDGIIKA-NH2 [PapN-5A] | 1.67 µM

same assay, conditions: ratio MHC (μM) over GM of MIC (μM)

Row | Substance | Therapeutic Index (MHC/GM), gram-negative
67 | RAKIAKKIEKVGRNVRDGIIKA-NH2 [PapN-2A5A] | 42.9
68 | RAKIFKKIEKVGRNVRDGIIKA-NH2 [PapN-2A] | 60.0
69 | RFKIWKKIEKVGRNVRDGIIKA-NH2 [PapN-2F5W] | 120
70 | RWKIAKKIEKVGRNVRDGIIKA-NH2 [PapN-5A] | 120

system: gram-positive bacteria (B. subtilis, E. faecalis, S. aureus); details: 16 h
Description: as §3, §1

Row | Substance | GM of the MIC values, gram-positive
71 | RAKIAKKIEKVGRNVRDGIIKA-NH2 [PapN-2A5A] | 213 µM
72 | RAKIAKKIEKVGRNVRDGIIKAGPAVAVVGQAATVVK-NH2 [Papiliocin-2A5A] | 213 µM
73 | RAKIFKKIEKVGRNVRDGIIKA-NH2 [PapN-2A] | 64.0 µM
74 | RAKIFKKIEKVGRNVRDGIIKAGPAVAVVGQAATVVK-NH2 [Papiliocin-2A] | 107 µM
75 | RFKIWKKIEKVGRNVRDGIIKA-NH2 [PapN-2F5W] | 29.3 µM
76 | RWKIAKKIEKVGRNVRDGIIKA-NH2 [PapN-5A] | 53.3 µM

same assay, conditions: ratio MHC (μM) over GM of MIC (μM)

Row | Substance | Therapeutic Index (MHC/GM), gram-positive
77 | RAKIAKKIEKVGRNVRDGIIKA-NH2 [PapN-2A5A] | 0.939
78 | RAKIAKKIEKVGRNVRDGIIKAGPAVAVVGQAATVVK-NH2 [Papiliocin-2A5A] | 0.939
79 | RAKIFKKIEKVGRNVRDGIIKA-NH2 [PapN-2A] | 3.13
80 | RAKIFKKIEKVGRNVRDGIIKAGPAVAVVGQAATVVK-NH2 [Papiliocin-2A] | 1.87
81 | RWKIAKKIEKVGRNVRDGIIKA-NH2 [PapN-5A] | 3.75
